We go through three molecules from US9321838B2, “Therapy targeting cathepsin S” (Fusion Antibodies Limited, priority 2006, dated 2016).

Experiment [1] relates to RKO+/+ cells. As to the kind of experiment: western blot of CatS in whole cell lysates with/without CPT11. To be noted: 48 hour CPT11 treatment (7.5 μM), whole cell lysate. It counts as cell-based, human. The method, then: (§1) Cells were washed in PBS (5 minute centrifugation at 1500 rpm) prior to lysis with RIPA buffer containing a protease inhibitor cocktail (Calbiochem, UK) as previously described. Whole cell lysates were loaded onto 12% SDS-PAGE gels at equal concentrations. Gels were run overnight at 50V prior to semi-dry transfer onto nitrocellulose membrane at 20V for 45 minutes (BioRad, UK). The nitrocellulose membrane was blocked using PBS (3% Milk powder) for ˜1 hour, and washed ×3 with PBS (0.01% tween) for 5 minutes. The membrane was then probed with a 1 in 1000 dilution of CatS Mab (1E4 Mab or 1E11 Mab) in PBS (3% Milk powder) for 1 hour. The membrane was washed ×3 with PBS (0.01% tween) for 5 minutes prior to the addition of a 1 in 5000 dilution of secondary goat anti mouse-HRP conjugated antibody (BioRad, UK) in PBS (3% Milk powder) for 1 hour. This was then washed three times in PBS (0.01% tween) for 5 minutes each. The membrane was ‘developed’ by ECL (enhanced chemiluminescence) using the Super Signal kit (Pierce). The membrane was incubated in ECL solution for 5 minutes, prior to exposure to photographic film for various time periods. The photographic film was washed in developer solution (Sigma, UK) for 1 minute, rinsed with water, and washed in fixer solution (Sigma, UK) again for 1 minute before being rinsed and dried. […]

Experiment [2] relates to HCT116+/+ cells. The description is as above. To be noted: 48 hour CPT11 treatment (7.5 μM), whole cell lysate. It counts as cell-based, human. On the procedure:
as §1

Experiment [3] concerns H630 p53 mutant cells. The experiment is described as follows: flow cytometry of CatS cell surface expression with/without CPT11. It counts as cell-based, human. The settings on record: CPT11 48 hour treated; basal 37%. The method, then:
(§2) Cells were collected from tissue culture plates using a scraper and washed ×3 in PBS (0.01% tween) (5 minute centrifugation at 1500 rpm). Approximately 5×10^5 cells were placed in appropriately labelled tubes. Cells were incubated with 50 μl anti-CatS or Isotype control (Sigma, UK) for 1 hour at room temperature. Following incubation each tube was washed ×3 in PBS (0.01% tween) (5 minute centrifugation at 1500 rpm). Samples were then incubated with a 1 in 15 dilution of FITC-conjugated goat anti-mouse secondary antibody (Sigma, UK) (samples kept in dark at room temperature). Following incubation each tube was washed ×3 in PBS (0.01% tween) (5 minute centrifugation at 1500 rpm). Samples were resuspended in 0.5 ml of PBS prior to immediate analysis using the Cyan flow cytometer (Dako, UK). Cell surface expression of CatS was examined using flow Cytometry.

Experiment [4] has as its system RKO+/+ cells. The description is as above. It counts as cell-based, human. To be noted: CPT11 48 hour treated; basal 38%. On the procedure: as §2
Experiment [5] deals with HCT116+/+ cells. The description is as above. Type of experiment: cell-based, human. To be noted: CPT11 48 hour treated; basal 39%. The method, then:
as §2

In experiment [6] the test system is HCT116+/+ cells. As to the kind of experiment: RT semi quantitative PCR of CatS mRNA with/without CPT11. Type of experiment: cell-based, human. The settings on record: 7.5 μM CPT11, 48 hour; treated vs untreated.
Experiment [7] relates to RKO+/+ cells. Described as above. It counts as cell-based, human. To be noted: 7.5 μM CPT11, 48 hour; treated vs untreated.
Experiment [8] relates to U251MG grade IV glioblastoma cell line. To be noted: U251MG cells, in the presence of the Cat S inhibitor; cited from earlier work.
Experiment [9] relates to other cathepsins. To be noted: at higher concentrations; cited from earlier work.
Experiment [10] concerns HCT116+/+ human colorectal adenocarcinoma xenograft. As to the kind of experiment: HCT116+/+ xenograft model, immunohistochemistry of tumour sections. To be noted: 15 mg/kg; sections stained with CatS 1E11 mAb; vs untreated. Type of experiment: in vivo, SCID mice.
Method: 6-8 week old female SCID mice were implanted with 2×10^6 HCT116+/+ human colorectal adenocarcinoma cells into each flank. […] They were mixed with equal volumes of matrigel to give a final concentration of 5×10^6 cells/ml. Mice were randomly separated into treatment groups on day 5 after implantation and treated with various regimes of CatS Mab or Isotype control Mab (10 mg/kg) with/without 5Fu (15 mg/kg daily or 70 mg/kg twice weekly). All drugs were administered through a bolus injection. Animals were sacrificed at various time points and tumours were removed for analysis.
Paraffin embedding of formalin-fixed xenograft/organ tissue samples, section cutting and H&E (haematoxylin and eosin) staining of tissue sections were performed as previously described. Immunostaining was performed using the avidin-horseradish peroxidase method (Vectorlabs ABC Kit).
Briefly, sections were deparaffinised by passing from xylene to alcohol to running water. Endogenous peroxidase activity was blocked by incubation in 3% H2O2 in methanol for 10 min. Sections were then boiled in citrate buffer, pH6.0, for 22 min. Incubation in 5% normal horse serum blocking solution was carried out for 20 min at room temp. Sections were incubated with primary antibody at 4° C. overnight. Appropriate isotype controls were used at the same dilutions as primary antibodies. […]

Consider `CCc1c2c(nc3ccc(OC(=O)N4CCC(N5CCCCC5)CC4)cc13)-c1cc3c(c(=O)n1C2)COC(=O)[C@]3(O)CC` [CPT11, Irinotecan], for which the “CatS whole protein expression, treated vs untreated” value in experiment [1] and in experiment [2] was “no obvious difference in whole protein expression levels” each time. Besides, the “positive CatS cell surface expression following chemotherapy induction” value in experiment [3] is given as 41%; in [4] it was 49%; in experiment [5], 59%. The “CatS mRNA expression in response to chemotherapy” value in experiment [6] and in experiment [7] was “increase in expression” throughout.

Regarding `CC(C)C[C@H](NC(=O)N1CCOCC1)C(=O)N[C@H](/C=C/S(=O)(=O)c1ccccc1)CCc1ccccc1` [LHVS, 4-Morpholineurea-Leu-HomoPhe-vinylsulphone], in experiment [8], the reduction in invasion is reported as 61%. Further, the “inhibition of other cathepsins” value in experiment [9] was “inhibit other cathepsins when used at higher concentrations”.

With `O=c1[nH]cc(F)c(=O)[nH]1` [5-Fu, Fluorouracil, reference compound], the “CatS expression in tumour sections from treated mice” value in experiment [10] is on record as “upregulation in CatS expression”.
